What was measured:
[1] = system: pest eggs of Tetranychus cinnabarinus; assay: Effect on hatching of pest eggs of Tetranychus cinnabarinus, leaf disc method; format: in vivo; conditions: for Hatching rate (%): 7 days after insecticide delivery; for inhibitory effect on the hatching of pest eggs of Tetranychus cinnabarinus (in words): 1 ppm
Description: • (1) Preparation of leaf discs containing eggs: 20 female adult mites of Tetranychus cinnabarinus were transferred onto leaf discs of Vicia faba with a diameter of 2.0 cm (with wetted filter paper at the bottom), then covered it with a lidded culture dish and cultivated under moisturizing conditions, the adult mites were removed within 36 hours and microscopic examination and counting were performed on leaf discs containing eggs. • (2) Investigation of egg population base: Before pesticide soaking, a microscopic examination was conducted on the egg basic number of each leaf disc, with 2 replicates set for each treatment. • (3) Pesticide soaking treatment: The leaf butterflies loaded with mite eggs were soaked in clear water and sulfite compounds for 10 seconds, respectively, then taken out and cultivated under moisturizing conditions. Each treatment should be repeated for no less than 3 times. • (4) Cultivation and observation: The […] were cultivated under normal conditions. Five days after insecticide delivery, the hatching status of mite eggs was investigated. • Note: The temperature and humidity conditions of the constant temperature and humidity incubator after the treatment should be controlled so as to avoid excessive temperature differences, which may cause generation and dripping of condensate water in the culture dish, resulting in abnormal death of eggs due to soaking in water; it is also necessary to ensure sufficient strong ambient light, without directing irradiating the leaves. • (5) Survey of Results: The experimental materials of each treatment group were regularly hydrated and moisturized, and the hatching of eggs was observed. On the 7th day after insecticide delivery, the number of hatched eggs for each treatment was recorded, and the survey of results was recorded in the original notebook. According to the experimental requirements and characteristics of agents, the survey time can be shortened or extended. • 1) Surveying and recording the number of hatched eggs for each treatment. • 2) Photographing and recording whether there was any pesticide damage to the leaf discs of Vicia faba. • 3) Recording the developmental status of experimental mite eggs, behavior status of nymph mites, including abnormal phenomena such as delayed or stopped development of mite eggs, difficulty in breaking hull for nymph mites, or painful struggles after hatching, etc. • (6) Calculation method: Based on the survey data, the prevention and control effect of each treatment was calculated according to the following formula, and the calculation results were kept to two decimal places. [formula] [formula] [table]

[2] = system: eggs of Spodoptera litura; assay: Effect on hatching of eggs of Spodoptera litura, egg piece soaking; format: in vivo; conditions: 500 ppm; for Hatching rate (%), Replicate 1 / Hatching rate (%), Replicate 2 / Hatching rate (%), Replicate 3 / Number of unhatched larvae 4 days after insecticide delivery, Replicate 1 / Number of unhatched larvae 4 days after insecticide delivery, Replicate 2 / Number of unhatched larvae 4 days after insecticide delivery, Replicate 3: Spodoptera litura eggs; for Hatching rate (%), Replicate 1 / Hatching rate (%), Replicate 2 / Hatching rate (%), Replicate 3: 4 days after delivery; for Number of unhatched larvae 4 days after insecticide delivery, Replicate 1 / Number of unhatched larvae 4 days after insecticide delivery, Replicate 2 / Number of unhatched larvae 4 days after insecticide delivery, Replicate 3: soaked 10 minutes
Description: • (1) Preparation of paper containing eggs: the egg mass was cut into small pieces, each containing about 60 eggs, soaked in a preformulated test agent for 10 minutes together with paper for egg raising (concentration of each compound of 500 ppm). After taken out, absorbent paper was used to absorb the excess solution adhered to the paper for egg raising and egg pieces. (2) Cultivation: Each egg piece was separately placed in a glass test tube (5.0 cm in height, 2.5 cm in diameter, the same below), which was sealed with plastic paper punctured with fine holes using insect needles and cultivated in an artificial climate chamber at a temperature of (24±1° C.), a relative humidity of (80±10) %, and a photoperiod of L:D=12:12. When the eggs developed until they were about to hatch, castor leaves with a diameter of about 3 cm were added for feeding the hatching larvae; • (3) Observation: the number of hatched and unhatched eggs per egg piece was checked and recorded, and the hatching rate of eggs was calculated according to the formula. Each treatment was repeated for 3 times. • (4) Survey of results: The experimental materials of each treatment group were regularly hydrated and moisturized, and the hatching of eggs was observed. On the 4th day after insecticide delivery, the number of hatched eggs for each treatment was recorded, and the survey of results was recorded in the original notebook. According to the experimental requirements and characteristics of agents, the survey time can be shortened or extended. • 1) Surveying and recording the number of hatched eggs for each treatment. • 2) Recording the developmental status of experimental eggs of Spodoptera litura, behavior status of nymphs, including abnormal phenomena such as delayed or stopped development of eggs of Spodoptera litura, etc. • (5) Calculation method: Based on the survey data, the prevention and control effect of each treatment was calculated according to the following formula, and the calculation results were kept to two decimal places. [formula] [formula]

Row | Compound | Hatching rate (%) ([1]; 0.25 mg/L, Replicate 1) | Hatching rate (%) ([1]; 0.25 mg/L, Replicate 2) | Number of hatched larvae 7 days after insecticide delivery ([1]; 0.25 mg/L, Replicate 1) | Number of hatched larvae 7 days after insecticide delivery ([1]; 0.25 mg/L, Replicate 2) | Hatching rate (%) ([1]; 0.5 mg/L, Replicate 1) | Hatching rate (%) ([1]; 0.5 mg/L, Replicate 2) | Number of hatched larvae 7 days after insecticide delivery ([1]; 0.5 mg/L, Replicate 1) | Number of hatched larvae 7 days after insecticide delivery ([1]; 0.5 mg/L, Replicate 2) | Hatching rate (%) ([1]; 1 mg/L, Replicate 1) | Hatching rate (%) ([1]; 1 mg/L, Replicate 2) | Number of hatched larvae 7 days after insecticide delivery ([1]; 1 mg/L, Replicate 1) | Number of hatched larvae 7 days after insecticide delivery ([1]; 1 mg/L, Replicate 2) | inhibitory effect on the hatching of pest eggs of Tetranychus cinnabarinus (in words) [1] | inhibitory activity on the hatching of eggs of Spodoptera litura (in words) [2] | Hatching rate (%), Replicate 1 [2] | Hatching rate (%), Replicate 2 [2] | Hatching rate (%), Replicate 3 [2] | Number of unhatched larvae 4 days after insecticide delivery, Replicate 1 [2] | Number of unhatched larvae 4 days after insecticide delivery, Replicate 2 [2] | Number of unhatched larvae 4 days after insecticide delivery, Replicate 3 [2] | also measured
1 | CCC(COc1ccc(Cl)cc1Cl)OS(=O)OCCF [19-(S,S)] | 65.52% | 69.86% | 20 | 22 | 20.90% | 21.31% | 53 | 48 | 15.25% | 14.29% | 50 | 54 | – | – | – | – | – | – | – | – | Hatching rate (%), Replicate 1 ([2]; listed as 19-(S, S)): 50.00%; Hatching rate (%), Replicate 2 ([2]; listed as 19-(S, S)): 51.72%; Hatching rate (%), Replicate 3 ([2]; listed as 19-(S, S)): 50.91%; Number of unhatched larvae 4 days after insecticide delivery, Replicate 1 ([2]; listed as 19-(S, S)): 30; Number of unhatched larvae 4 days after insecticide delivery, Replicate 2 ([2]; listed as 19-(S, S)): 28; Number of unhatched larvae 4 days after insecticide delivery, Replicate 3 ([2]; listed as 19-(S, S)): 27
2 | CC(C)(COc1ccc(Cl)cc1Cl)OS(=O)OCCF (centres unmarked) [Compound S-10] | 39.51% | 41.79% | 49 | 39 | 4.62% | 3.39% | 62 | 57 | 0.00% | 0.00% | 78 | 84 | excellent inhibitory effects | good inhibitory activities | 21.43% | 22.86% | 24.19% | 44 | 54 | 47 | –
3 | CC(COc1ccc(Cl)cc1Cl)OS(=O)OCCF [1′-(R,R)] | 69.57% | 82.22% | 14 | 8 | 36.84% | 36.51% | 36 | 40 | 25.37% | 8.00% | 50 | 69 | – | – | – | – | – | – | – | – | Hatching rate (%), Replicate 1 ([2]; listed as 1′-(R, R)): 61.82%; Hatching rate (%), Replicate 2 ([2]; listed as 1′-(R, R)): 64.29%; Hatching rate (%), Replicate 3 ([2]; listed as 1′-(R, R)): 62.71%; Number of unhatched larvae 4 days after insecticide delivery, Replicate 1 ([2]; listed as 1′-(R, R)): 21; Number of unhatched larvae 4 days after insecticide delivery, Replicate 2 ([2]; listed as 1′-(R, R)): 20; Number of unhatched larvae 4 days after insecticide delivery, Replicate 3 ([2]; listed as 1′-(R, R)): 22
4 | CC(COc1ccc(Cl)cc1Cl)OS(=O)OCCF (centres unmarked) [Compound 1′] | 69.81% | 70.83% | 16 | 21 | 36.24% | 31.11% | 42 | 31 | 0.00% | 1.69% | 47 | 58 | excellent inhibitory effects | – | 40.68% | 40.32% | 39.06% | 35 | 37 | 39 | –
5 | CC[C@@H](COS(=O)OCCF)Oc1ccc(Cl)cc1Cl (stereo partly drawn) [19′-(S,S)] | 40.82% | 39.73% | 29 | 44 | 5.71% | 3.57% | 66 | 54 | 0.00% | 0.00% | 56 | 49 | excellent inhibitory effects | good inhibitory activities | – | – | – | – | – | – | Hatching rate (%), Replicate 1 ([2]; listed as 19′-(S, S)): 17.54%; Hatching rate (%), Replicate 2 ([2]; listed as 19′-(S, S)): 19.70%; Hatching rate (%), Replicate 3 ([2]; listed as 19′-(S, S)): 18.87%; Number of unhatched larvae 4 days after insecticide delivery, Replicate 1 ([2]; listed as 19′-(S, S)): 47; Number of unhatched larvae 4 days after insecticide delivery, Replicate 2 ([2]; listed as 19′-(S, S)): 53; Number of unhatched larvae 4 days after insecticide delivery, Replicate 3 ([2]; listed as 19′-(S, S)): 43

From patent US20260184675A1, “CHIRAL ISOMERIC SULFITE COMPOUND AND APPLICATION THEREOF” (Chengdu Hanova BioSciences Co., Ltd, priority 2024, published 2026)
